Assay results published in US20250339409A1, “USES OF PAN BET INHIBITORS” (VYNE THERAPEUTICS INC., priority 2021, published 2025).
“And” between values parts separate entries of the source, which are not always exact repeats. Equal entries are not always repeated. Marks after values point to notes of the source that are not given here.

Test system: anti collagen antibodies induced arthritis (ACAIA)
Assay: Anti collagen antibodies induced arthritis (ACAIA) in mice, intra-articular treatment: paw thickness, arthritis clinical score, body weight;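 further: mouse arthritis induced by IV anti-collagen mAb on day 0 plus IP LPS on day 4, with body weight, caliper paw thickness and 0-4 paw score tracked against a day 0 baseline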

C[C@@H]1C[C@H]2[C@@H]3CCC4=CC(=O)C=C[C@]4(C)[C@@]3(F)[C@@H](O)C[C@]2(C)[C@@]1(O)C(=O)CO [dexamethasone, Dexamethasone, reference compound]
Clinical score of treated leg (Avg.) (1 mg/kg IA (Group 7), Baseline): 0.00 points | Paw thickness Avg. Delta untreated -treated (1 mg/kg IA (Group 7), Baseline): 0.00 mm | Percent change of weight per day (Av) (1 mg/kg IA (Group 7), Baseline): 100.00% | Percent change of weight per day (individual animal) (1 mg/kg IA (Group 7), Baseline): 100% | Δ clinical score untreated -treated, Avg. Delta (1 mg/kg IA (Group 7), Baseline): 0.00 points | Clinical score of treated leg (Avg.) (1 mg/kg IA (Group 7), Day 3): 0.00 points | Paw thickness Avg. Delta untreated -treated (1 mg/kg IA (Group 7), Day 3): −0.02 mm | Percent change of weight per day (Av) (1 mg/kg IA (Group 7), Day 3): 98.19% | Percent change of weight per day (individual animal) (1 mg/kg IA (Group 7), Day 3): 100% and 97.54% and 95.7% and 99.48% | Δ clinical score untreated -treated, Avg. Delta (1 mg/kg IA (Group 7), Day 3): 0.00 points | Clinical score of treated leg (Avg.) (1 mg/kg IA (Group 7), Day 4): 0.00 points | Paw thickness Avg. Delta untreated -treated (1 mg/kg IA (Group 7), Day 4): −0.06 mm | Percent change of weight per day (Av) (1 mg/kg IA (Group 7), Day 4): 95.21% | Percent change of weight per day (individual animal) (1 mg/kg IA (Group 7), Day 4): 97.91% and 96.55% and 93.01% and 93.23% | Δ clinical score untreated -treated, Avg. Delta (1 mg/kg IA (Group 7), Day 4): 0.00 points | Clinical score of treated leg (Avg.) (1 mg/kg IA (Group 7), Day 5): 0.00 points | Paw thickness Avg. Delta untreated -treated (1 mg/kg IA (Group 7), Day 5): −0.05 mm | Percent change of weight per day (Av) (1 mg/kg IA (Group 7), Day 5): 91.29% | Percent change of weight per day (individual animal) (1 mg/kg IA (Group 7), Day 5): 90.58% and 91.133% and 88.71% and 100% | Δ clinical score untreated -treated, Avg. Delta (1 mg/kg IA (Group 7), Day 5): 0.00 points | Clinical score of treated leg (Avg.) (1 mg/kg IA (Group 7), Day 6): 0.29 points | Paw thickness Avg. Delta untreated -treated (1 mg/kg IA (Group 7), Day 6): 0.05 mm | Paw thickness of treated leg (Avg.) (1 mg/kg IA (Group 7), Day 6): 2.24** mm | Paw thickness of untreated leg (Avg.) (1 mg/kg IA (Group 7), Day 6): 2.29 mm | Percent change of weight per day (Av) (1 mg/kg IA (Group 7), Day 6): 88.66% | Percent change of weight per day (individual animal) (1 mg/kg IA (Group 7), Day 6): 86.91% and 87.68% and 86.02% and 102.0833% | Δ clinical score untreated -treated, Avg. Delta (1 mg/kg IA (Group 7), Day 6): 0.29 points | Clinical score of treated leg (Avg.) (1 mg/kg IA (Group 7), Day 7): 0.86 points | Paw thickness Avg. Delta untreated -treated (1 mg/kg IA (Group 7), Day 7): −0.01 mm | Paw thickness of treated leg (Avg.) (1 mg/kg IA (Group 7), Day 7): 2.30** mm | Paw thickness of untreated leg (Avg.) (1 mg/kg IA (Group 7), Day 7): 2.30 mm | Percent change of weight per day (Av) (1 mg/kg IA (Group 7), Day 7): 88.04% | Percent change of weight per day (individual animal) (1 mg/kg IA (Group 7), Day 7): 89.01% and 83.25% and 86.02% and 104.1667% | Δ clinical score untreated -treated, Avg. Delta (1 mg/kg IA (Group 7), Day 7): 0.00 points | Clinical score of treated leg (Avg.) (1 mg/kg IA (Group 7), Day 8): 1.14 points | Paw thickness Avg. Delta untreated -treated (1 mg/kg IA (Group 7), Day 8): 0.14 mm | Paw thickness of treated leg (Avg.) (1 mg/kg IA (Group 7), Day 8): 2.44 mm | Paw thickness of untreated leg (Avg.) (1 mg/kg IA (Group 7), Day 8): 2.59 mm | Percent change of weight per day (Av) (1 mg/kg IA (Group 7), Day 8): 89.48% | Percent change of weight per day (individual animal) (1 mg/kg IA (Group 7), Day 8): 90.05% and 83.25% and 87.63% and 104.6875% | Δ clinical score untreated -treated, Avg. Delta (1 mg/kg IA (Group 7), Day 8): 0.57 points | Clinical score of treated leg (Avg.) (1 mg/kg IA (Group 7), Day 10): 1.14 points | Paw thickness Avg. Delta untreated -treated (1 mg/kg IA (Group 7), Day 10): 0.19 mm | Paw thickness of treated leg (Avg.) (1 mg/kg IA (Group 7), Day 10): 2.45 mm | Paw thickness of untreated leg (Avg.) (1 mg/kg IA (Group 7), Day 10): 2.64 mm | Percent change of weight per day (Av) (1 mg/kg IA (Group 7), Day 10): 92.65% | Percent change of weight per day (individual animal) (1 mg/kg IA (Group 7), Day 10): 91.1% and 92.61% and 87.63% and 104.1667% | Δ clinical score untreated -treated, Avg. Delta (1 mg/kg IA (Group 7), Day 10): 0.43 points | Clinical score of treated leg (Avg.) (1 mg/kg IA (Group 7), Day 12): 1.29 points | Paw thickness Avg. Delta untreated -treated (1 mg/kg IA (Group 7), Day 12): 0.24 mm | Paw thickness of treated leg (Avg.) (1 mg/kg IA (Group 7), Day 12): 2.50 mm | Paw thickness of untreated leg (Avg.) (1 mg/kg IA (Group 7), Day 12): 2.74 mm | Percent change of weight per day (Av) (1 mg/kg IA (Group 7), Day 12): 96.89% | Percent change of weight per day (individual animal) (1 mg/kg IA (Group 7), Day 12): 93.19% and 99.01% and 90.32% and 110.4167% and 94.55% | Δ clinical score untreated -treated, Avg. Delta (1 mg/kg IA (Group 7), Day 12): 0.43 points | Clinical score of treated leg (Avg.) (1 mg/kg IP (Group 6), Baseline): 0.00 points | Paw thickness Avg. Delta untreated -treated (1 mg/kg IP (Group 6), Baseline): 0.02 mm | Percent change of weight per day (Av) (1 mg/kg IP (Group 6), Baseline): 100.00% | Percent change of weight per day (individual animal) (1 mg/kg IP (Group 6), Baseline): 100% | Δ clinical score untreated -treated, Avg. Delta (1 mg/kg IP (Group 6), Baseline): 0.00 points | Clinical score of treated leg (Avg.) (1 mg/kg IP (Group 6), Day 3): 0.00 points | Paw thickness Avg. Delta untreated -treated (1 mg/kg IP (Group 6), Day 3): 0.00 mm | Percent change of weight per day (Av) (1 mg/kg IP (Group 6), Day 3): 95.60** percent | Percent change of weight per day (individual animal) (1 mg/kg IP (Group 6), Day 3): 94.97% and 94.09% and 95.07% and 96.31% and 96.24% and 96.41% and 96.1165% | Δ clinical score untreated -treated, Avg. Delta (1 mg/kg IP (Group 6), Day 3): 0.00 points | Clinical score of treated leg (Avg.) (1 mg/kg IP (Group 6), Day 4): 0.00 points | Paw thickness Avg. Delta untreated -treated (1 mg/kg IP (Group 6), Day 4): −0.01 mm | Percent change of weight per day (Av) (1 mg/kg IP (Group 6), Day 4): 96.59% | Percent change of weight per day (individual animal) (1 mg/kg IP (Group 6), Day 4): 96.48% and 95.5665% and 97.04% and 96.31% and 96.71% and 97.4359% and 96.6% | Δ clinical score untreated -treated, Avg. Delta (1 mg/kg IP (Group 6), Day 4): 0.00 points | Clinical score of treated leg (Avg.) (1 mg/kg IP (Group 6), Day 5): 0.00 points | Paw thickness Avg. Delta untreated -treated (1 mg/kg IP (Group 6), Day 5): 0.01 mm | Percent change of weight per day (Av) (1 mg/kg IP (Group 6), Day 5): 88.34% | Percent change of weight per day (individual animal) (1 mg/kg IP (Group 6), Day 5): 88.44% and 86.2069% and 91.63% and 86.18% and 86.85% and 89.74% and 89.32% | Δ clinical score untreated -treated, Avg. Delta (1 mg/kg IP (Group 6), Day 5): 0.00 points | Clinical score of treated leg (Avg.) (1 mg/kg IP (Group 6), Day 6): 0.00* points | Paw thickness Avg. Delta untreated -treated (1 mg/kg IP (Group 6), Day 6): −0.05 mm
